# System: Microtox Acute Toxicity Reagent (Vibrio fischerio)
# Assay: Microtox Response Test (Microtox Response Index of anionic surfactant)
# Assay type: cell-based
# Settings: pure anionic surfactant; EC50 for 50% decrease of bioluminescence, 5 minutes
# Text: The biological activity/mildness of a pure surfactant can measured directly via a Microtox Response Test hereinafter described in the Analytical Methods section and can be reported as a Microtox Response Index. By “pure surfactant” it is meant a chemical composition consisting essentially of a single surfactant entity, wherein the entity has essentially one chain length, head group and salt counter ion. From a standpoint of high biological activity, preferred anionic surfactants of the antimicrobial cleansing compositions of the present invention have a Microtox Response Index of less that about 150, more preferably less than about 100 and most preferably less than about 50. […]
# For surfactant compositions which are mixtures of surfactants rather than pure surfactants (this includes “commercial grade” surfactants which typically comprise mixtures of entities with different chain lengths and potentially have higher levels of impurities), the Microtox Response Index for any individual surfactant component is not a reliable measurement of biological activity or mildness. In the case of mixtures, the Microtox Index of each individual component can be determined and the weighted average used as the Index for the mixture if all the individual components of the mixture are known. […]
molecule,measurement,value
CCCCCCCCCCCCOS(=O)(=O)O.N [ammonium lauryl sulfate],Microtox Index,1.0 ppm
ammonium laureth-3 sulfate,Microtox Index,120 ppm

# From patent US6413529B1, “Antimicrobial wipes which provide improved residual benefit versus gram negative bacteria” (The Procter & Gamble Company, priority 1999, dated 2002)
